Paper PMC2789381, “Voltage-Dependent Modulation of Cardiac Ryanodine Receptors (RyR2) by Protamine” (PLoS ONE, 2009)
Several values for one entry are separate records, joined by “and”; a condition that tells them apart may be missing. Equal values may be shown once.

Molecular target: T1, cardiac RyR2 (Sus scrofa, UniProt A0A5G2R1W3)
T1 construct: from tissue; host or cells: pig heart ventricle (sarcoplasmic reticulum microsomes)
Assay: Single-channel recordings of RyR2 reconstituted into planar lipid bilayers
Type: biochemical, pig
Details: for dwell time of ryanodol-induced events: Vm = +20 mV, n = 7, mean±SEM; for dwell time of ryanodol-induced events / slope conductance of the induced substate (I-V curve): SEM; for substate current level as % of the current through the full open channel / substate current level as % of the full open current: 1 µg/ml protamine, 10 µM ryanodol or 50 nM IpTxA, 10 µM cytosolic Ca2+/5 mM caffeine; for substate current level as % of the full open current: Vm = +40 mV; for slope conductance of the induced substate (I-V curve): fully active RyR2 (10 µM Ca2+/5 mM caffeine), full open state 129±1 pS, n = 10 protamine, 13 ryanodol, 5 IpTxA, mean±SEM
Text: All procedures with animals were designed to minimize pain and suffering and conformed to the guidelines of the National Institutes of Health. The committee on the Use and Care of Laboratory Animals of Southern Illinois University School of Medicine reviewed and approved the protocols for animal use. Sarcoplasmic reticulum (SR) microsomes were obtained from pig heart ventricle using heart homogenization and ultracentrifugation steps that follow the procedures published by Chamberlain et al.. SR pellets obtained after high speed centrifugation were resuspended in 290 mM sucrose - 5 mM Imidazole buffer (pH = 7) and were aliquoted in cryovials (300 µl each) and kept in liquid nitrogen (better and safer long-term storage). Every month, a few cryovials are used to generate smaller aliquots of membranes (15 µl each) which were stored at –80°C for easy access. For experiments, aliquots were quickly thawed in water, kept on ice and used within 3–5 hours.
Reconstitution of RyR2 in planar lipid bilayers, was performed as previously described. Briefly, planar lipid bilayers were formed on 80 to 100 µm-diameter circular holes in teflon septa, separating two 1.3 ml compartments. The trans compartment was filled with HEPES-Ca^2+ solution containing HEPES 250 mM and Ca(OH)2 53 mM, pH 7.4. The trans compartment was clamped at 0 mV using an Axopatch 200B patch-clamp amplifier (Axon Instruments, Foster City, CA). The cis compartment (ground) was filled with HEPES-Tris solution containing HEPES 250 mM and TrisOH 118 mM, pH 7.4. Bilayers of a 5∶4∶1 mixture of bovine brain phosphatidylethanolamine, phosphatidylserine and phosphatidylcholine (45–50 mg/ml in decane) were painted onto the holes of teflon septa from the cis side. Sarcoplasmic reticulum microsomes (5–15 µg) were then added to the cis solution followed by 500–1000 mM CsCl and 1 mM CaCl2 to promote vesicle fusion. After RyR currents (or Cl^− currents >100 pA at 0 mV) were observed, the cis chamber was perfused with HEPES-TRIS solution for 5 min at 4 ml/min. A mixture of BAPTA and dibromo-BAPTA was used to buffer free [Ca^2+] on the cytosolic surface of the channel ([Ca^2+]cyt). As previously done, RyR channels were identified by current amplitudes (∼3.5 pA at 0 mV), slope conductance (∼100 pS), reversal potential (∼−45 mV, trans - cis) and response to diagnostic ligands (e.g., ryanodine, Ca^2+, ATP, caffeine and Ruthenium Red). RyR channel currents are depicted as positive (upward deflections of the current) in figures and reflect cation flux from the trans (lumenal) to the cis (cytosolic) compartment. Membrane voltages always represent the difference between trans - cis compartments (in mV).
Channel currents were first filtered through the Axopatch 200B low-pass Bessel filter at 2 kHz, digitized at 20 kHz with an analog to digital converter (Digidata 1320, Axon Instruments) and stored on DVD. Recordings were analyzed using pClamp9 software (Axon Instruments). Analysis with this program included open times, closed times and open probabilities (Po), which were determined by half-amplitude threshold analysis of single-channel recordings as done before.
Recordings were digitally filtered at 500 Hz in order to estimate the probabilities of substates using two different methods:
Frame by frame analysis (100 ms/frame) was performed using pClamp9 on each 4-min recording. […] The parameters (mean amplitude and duration) of each event were collected and averaged. The probability of substate occurrence, Psubstate, was estimated from the ratio: time spent in substate/total recording time. Pfull open was estimated as the fraction of time spent in the maximal current level (full opening).

T1 sequence (A0A5G2R1W3 20-4900): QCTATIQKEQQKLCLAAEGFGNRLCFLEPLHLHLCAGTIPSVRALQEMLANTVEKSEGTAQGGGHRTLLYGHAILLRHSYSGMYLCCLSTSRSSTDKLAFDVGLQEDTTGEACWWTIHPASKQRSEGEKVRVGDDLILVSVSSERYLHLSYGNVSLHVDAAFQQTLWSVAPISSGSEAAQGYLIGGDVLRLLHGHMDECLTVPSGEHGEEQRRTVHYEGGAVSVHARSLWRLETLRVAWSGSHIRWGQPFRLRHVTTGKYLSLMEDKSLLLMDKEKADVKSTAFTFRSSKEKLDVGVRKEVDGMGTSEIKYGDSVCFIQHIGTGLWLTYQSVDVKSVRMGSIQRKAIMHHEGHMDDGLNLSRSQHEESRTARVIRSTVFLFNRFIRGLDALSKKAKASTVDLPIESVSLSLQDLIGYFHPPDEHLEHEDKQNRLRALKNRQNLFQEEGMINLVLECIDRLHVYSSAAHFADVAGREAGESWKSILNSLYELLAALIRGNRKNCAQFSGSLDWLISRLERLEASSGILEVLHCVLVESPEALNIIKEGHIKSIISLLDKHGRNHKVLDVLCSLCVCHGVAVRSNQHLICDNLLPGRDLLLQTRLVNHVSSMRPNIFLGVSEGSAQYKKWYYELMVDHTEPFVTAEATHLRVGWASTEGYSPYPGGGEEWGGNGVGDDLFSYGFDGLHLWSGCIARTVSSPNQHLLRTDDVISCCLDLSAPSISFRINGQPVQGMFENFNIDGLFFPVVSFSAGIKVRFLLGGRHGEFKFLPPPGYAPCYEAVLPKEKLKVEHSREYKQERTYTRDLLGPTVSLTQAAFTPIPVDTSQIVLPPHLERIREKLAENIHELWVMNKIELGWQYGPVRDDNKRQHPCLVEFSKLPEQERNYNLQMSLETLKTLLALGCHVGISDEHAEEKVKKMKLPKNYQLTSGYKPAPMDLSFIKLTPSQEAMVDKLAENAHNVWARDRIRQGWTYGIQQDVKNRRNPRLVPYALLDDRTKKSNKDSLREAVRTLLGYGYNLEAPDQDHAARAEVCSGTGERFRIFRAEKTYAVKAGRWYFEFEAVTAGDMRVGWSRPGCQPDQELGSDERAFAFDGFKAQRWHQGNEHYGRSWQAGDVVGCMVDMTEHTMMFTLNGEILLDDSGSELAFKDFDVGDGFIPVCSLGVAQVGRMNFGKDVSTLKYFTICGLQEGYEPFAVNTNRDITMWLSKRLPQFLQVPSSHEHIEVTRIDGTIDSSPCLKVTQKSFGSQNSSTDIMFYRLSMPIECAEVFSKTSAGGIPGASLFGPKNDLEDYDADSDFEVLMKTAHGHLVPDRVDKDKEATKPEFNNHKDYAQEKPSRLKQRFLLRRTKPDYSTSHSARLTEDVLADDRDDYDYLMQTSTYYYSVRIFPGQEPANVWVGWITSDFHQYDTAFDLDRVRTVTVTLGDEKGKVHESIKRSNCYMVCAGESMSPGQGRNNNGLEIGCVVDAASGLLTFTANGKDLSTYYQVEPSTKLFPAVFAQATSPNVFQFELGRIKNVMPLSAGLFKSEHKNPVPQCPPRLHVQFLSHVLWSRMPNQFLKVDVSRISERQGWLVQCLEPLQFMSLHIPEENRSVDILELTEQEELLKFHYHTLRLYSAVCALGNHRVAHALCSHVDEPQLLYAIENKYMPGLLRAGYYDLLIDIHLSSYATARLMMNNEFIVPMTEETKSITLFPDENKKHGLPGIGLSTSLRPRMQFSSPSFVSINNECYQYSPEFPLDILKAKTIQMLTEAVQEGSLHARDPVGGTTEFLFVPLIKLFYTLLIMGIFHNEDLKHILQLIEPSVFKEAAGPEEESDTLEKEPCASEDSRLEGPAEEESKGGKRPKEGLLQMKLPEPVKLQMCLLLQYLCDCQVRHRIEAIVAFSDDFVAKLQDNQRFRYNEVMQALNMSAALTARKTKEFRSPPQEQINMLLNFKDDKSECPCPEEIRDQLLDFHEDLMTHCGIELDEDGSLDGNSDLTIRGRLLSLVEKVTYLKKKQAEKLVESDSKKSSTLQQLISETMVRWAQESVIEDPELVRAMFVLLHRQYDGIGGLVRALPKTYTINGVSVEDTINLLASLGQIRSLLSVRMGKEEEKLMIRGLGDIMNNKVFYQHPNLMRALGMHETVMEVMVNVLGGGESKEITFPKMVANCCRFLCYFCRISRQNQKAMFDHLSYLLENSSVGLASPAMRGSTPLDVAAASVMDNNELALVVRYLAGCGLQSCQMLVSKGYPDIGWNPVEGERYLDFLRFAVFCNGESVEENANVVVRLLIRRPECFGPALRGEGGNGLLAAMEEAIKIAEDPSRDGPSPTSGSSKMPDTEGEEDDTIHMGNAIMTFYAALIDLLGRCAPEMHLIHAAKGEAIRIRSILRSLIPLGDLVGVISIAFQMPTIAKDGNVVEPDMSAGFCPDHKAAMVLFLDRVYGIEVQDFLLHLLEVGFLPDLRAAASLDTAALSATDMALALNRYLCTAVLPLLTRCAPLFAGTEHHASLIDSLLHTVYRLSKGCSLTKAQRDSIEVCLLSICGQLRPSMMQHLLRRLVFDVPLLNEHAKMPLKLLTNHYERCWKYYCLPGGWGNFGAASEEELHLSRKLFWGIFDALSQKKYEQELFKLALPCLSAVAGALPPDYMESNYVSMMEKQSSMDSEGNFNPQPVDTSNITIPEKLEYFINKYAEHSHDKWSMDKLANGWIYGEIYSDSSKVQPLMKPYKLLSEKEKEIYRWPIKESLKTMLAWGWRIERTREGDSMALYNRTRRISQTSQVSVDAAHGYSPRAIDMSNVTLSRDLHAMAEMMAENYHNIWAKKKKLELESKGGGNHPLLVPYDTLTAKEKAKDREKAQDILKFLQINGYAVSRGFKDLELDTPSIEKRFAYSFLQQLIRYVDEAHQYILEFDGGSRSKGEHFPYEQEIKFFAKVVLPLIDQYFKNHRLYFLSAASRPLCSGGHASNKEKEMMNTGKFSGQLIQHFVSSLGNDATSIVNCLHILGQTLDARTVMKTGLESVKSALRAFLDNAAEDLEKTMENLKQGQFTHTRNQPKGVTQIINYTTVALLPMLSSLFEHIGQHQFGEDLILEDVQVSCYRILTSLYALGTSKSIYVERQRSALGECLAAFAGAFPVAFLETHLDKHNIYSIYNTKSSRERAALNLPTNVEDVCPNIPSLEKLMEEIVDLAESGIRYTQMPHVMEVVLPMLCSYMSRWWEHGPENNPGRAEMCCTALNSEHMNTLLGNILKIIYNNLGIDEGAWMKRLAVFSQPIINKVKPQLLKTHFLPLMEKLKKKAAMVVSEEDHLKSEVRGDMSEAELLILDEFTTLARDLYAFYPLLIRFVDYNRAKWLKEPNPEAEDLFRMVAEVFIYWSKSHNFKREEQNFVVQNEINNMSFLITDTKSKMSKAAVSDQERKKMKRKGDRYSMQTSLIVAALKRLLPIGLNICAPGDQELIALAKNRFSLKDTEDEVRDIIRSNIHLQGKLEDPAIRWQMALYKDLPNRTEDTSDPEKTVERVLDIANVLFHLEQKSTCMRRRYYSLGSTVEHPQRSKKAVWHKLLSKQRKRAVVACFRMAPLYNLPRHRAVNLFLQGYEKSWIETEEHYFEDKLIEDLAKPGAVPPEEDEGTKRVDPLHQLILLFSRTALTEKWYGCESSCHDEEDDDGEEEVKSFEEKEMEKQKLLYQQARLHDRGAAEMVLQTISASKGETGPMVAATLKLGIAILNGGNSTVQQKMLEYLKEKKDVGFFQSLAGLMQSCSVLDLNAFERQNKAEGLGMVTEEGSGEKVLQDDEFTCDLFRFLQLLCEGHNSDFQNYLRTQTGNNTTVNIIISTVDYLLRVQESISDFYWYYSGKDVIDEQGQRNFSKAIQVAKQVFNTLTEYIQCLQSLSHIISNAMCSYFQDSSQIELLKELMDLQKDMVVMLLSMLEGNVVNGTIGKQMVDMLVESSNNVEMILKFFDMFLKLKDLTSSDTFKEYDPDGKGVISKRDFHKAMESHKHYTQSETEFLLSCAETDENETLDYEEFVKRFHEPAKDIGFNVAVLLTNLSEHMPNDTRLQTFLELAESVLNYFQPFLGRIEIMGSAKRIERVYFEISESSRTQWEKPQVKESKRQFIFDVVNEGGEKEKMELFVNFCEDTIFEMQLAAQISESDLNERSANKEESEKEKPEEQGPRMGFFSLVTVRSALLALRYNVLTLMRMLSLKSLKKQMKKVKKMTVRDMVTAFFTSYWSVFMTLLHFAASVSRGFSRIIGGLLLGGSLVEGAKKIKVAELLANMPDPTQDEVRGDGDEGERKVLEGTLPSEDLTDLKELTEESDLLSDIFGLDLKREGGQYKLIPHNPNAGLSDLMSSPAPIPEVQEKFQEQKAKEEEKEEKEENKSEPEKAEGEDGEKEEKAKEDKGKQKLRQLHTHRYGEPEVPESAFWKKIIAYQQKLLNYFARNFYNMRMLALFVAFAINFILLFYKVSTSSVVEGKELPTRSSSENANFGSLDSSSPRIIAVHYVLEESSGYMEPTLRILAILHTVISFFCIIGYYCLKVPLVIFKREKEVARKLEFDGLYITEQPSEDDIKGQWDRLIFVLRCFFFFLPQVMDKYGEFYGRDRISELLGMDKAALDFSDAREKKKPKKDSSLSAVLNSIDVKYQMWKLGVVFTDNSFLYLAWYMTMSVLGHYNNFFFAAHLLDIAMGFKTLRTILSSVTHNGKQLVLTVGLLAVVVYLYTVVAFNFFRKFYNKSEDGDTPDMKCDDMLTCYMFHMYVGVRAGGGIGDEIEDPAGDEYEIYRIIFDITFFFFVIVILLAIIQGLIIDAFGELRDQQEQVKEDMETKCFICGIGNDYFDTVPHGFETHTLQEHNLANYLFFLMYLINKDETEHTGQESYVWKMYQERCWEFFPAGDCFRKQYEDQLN

Row | Compound | open probability (Po) after addition of heparin (250 µg/ml heparin after 1 µg/ml protamine, 100 nM cytosolic Ca2+, Vm = 20 mV, n = 5) | effect of subsequent heparin addition on protamine-modified RyR2 (250 µg/ml heparin after 20 µg/ml protamine, Vm = 0 mV) | dwell time of ryanodol-induced events (10 µM ryanodol + 1 µg/ml protamine + 250 µg/ml heparin) [s] | dwell time of ryanodol-induced events (10 µM ryanodol + 1 µg/ml protamine) | dwell time of ryanodol-induced events (10 µM ryanodol alone) [s] | substate current level as % of the current through the full open channel (Vm = 0 mV) [%] | substate current level as % of the full open current | slope conductance of the induced substate (I-V curve) [pS] | effect of IpTxA on RyR2 behavior when protamine is present (50 nM IpTxA + 1 µg/ml protamine, fully activated RyR2)
1 | heparin | 0.009±0.006 | reversed the effect of protamine |  |  |  |  |  |  | 
2 | CC(C)[C@@]1(O)[C@@H](O)[C@@]2(O)[C@@]3(C)C[C@]4(O)O[C@@]5([C@H](O)[C@@H](C)CC[C@]35O)[C@@]2(O)[C@]14C [ryanodol, Ryanodol] |  |  | 3.4 ± 0.5 | 11 ± 3 s and 11.3 ± 2.5 s | 3.7 ± 0.7 | ~45 | same proportions | 56±2 | 
3 | Imperatoxin A [IpTxA] |  |  |  |  |  | ~33 | same proportions | 43±3 | little or no effect
